ChEMBL document CHEMBL1201862, “PubChem BioAssay data set” (2004)
Activity calls are given as the source filed them.

How the values were obtained:
[1] = molecular target: T1, Oxysterols receptor LXR-beta (Homo sapiens, UniProt P55055); assay type: functional, cell-based;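 note: agonist activity at LXR measured by a cell-based luminescence readout across a dose range, run as a counterscreen for daf-12 agonists; HEK293 cells with Gal4-LXR fusion and GAL4-driven luciferase reporter; potency for activation of Gal4-LXR reporter so compounds are agonists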
T1 sequence (P55055 whole entry): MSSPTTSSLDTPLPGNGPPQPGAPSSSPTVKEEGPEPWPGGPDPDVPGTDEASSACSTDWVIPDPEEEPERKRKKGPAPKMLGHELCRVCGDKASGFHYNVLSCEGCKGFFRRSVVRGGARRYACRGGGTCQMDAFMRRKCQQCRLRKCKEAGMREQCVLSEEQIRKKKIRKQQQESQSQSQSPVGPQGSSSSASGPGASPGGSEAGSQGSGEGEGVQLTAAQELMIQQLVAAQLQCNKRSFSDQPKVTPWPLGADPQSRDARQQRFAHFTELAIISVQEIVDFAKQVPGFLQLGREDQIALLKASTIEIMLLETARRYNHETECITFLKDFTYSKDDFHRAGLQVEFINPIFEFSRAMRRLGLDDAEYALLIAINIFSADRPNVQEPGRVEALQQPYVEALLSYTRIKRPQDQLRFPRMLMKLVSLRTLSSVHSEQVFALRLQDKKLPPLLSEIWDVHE

[2] = molecular target: T2, Nuclear receptor subfamily 0 group B member 1 (Homo sapiens, UniProt P51843); assay type: functional, cell-based;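 note: HEK293T cells transfected with SF-1 and DAX-1 plus StAR promoter luciferase reporter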
T2 sequence (P51843 whole entry): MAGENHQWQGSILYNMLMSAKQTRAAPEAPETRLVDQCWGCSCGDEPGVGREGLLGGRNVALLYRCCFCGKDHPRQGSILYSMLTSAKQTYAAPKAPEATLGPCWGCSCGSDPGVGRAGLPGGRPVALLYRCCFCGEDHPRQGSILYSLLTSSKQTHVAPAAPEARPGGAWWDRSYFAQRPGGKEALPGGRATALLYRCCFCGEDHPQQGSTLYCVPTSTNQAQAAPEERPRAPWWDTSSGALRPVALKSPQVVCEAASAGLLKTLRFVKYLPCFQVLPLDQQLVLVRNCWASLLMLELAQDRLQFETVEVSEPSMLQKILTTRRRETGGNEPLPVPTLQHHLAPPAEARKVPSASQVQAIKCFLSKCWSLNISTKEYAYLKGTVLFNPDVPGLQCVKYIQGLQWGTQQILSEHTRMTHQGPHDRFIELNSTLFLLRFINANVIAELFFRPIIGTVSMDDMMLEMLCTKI

[3] = cells; assay type: functional, cell-based
[4] = ADAM10 inhibitors, peptide cleavage, dose response, biochemical, QFRET (AID 743254);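 note: ADAM10 enzyme with the DM2 quenched FRET peptide as substrate; EDANS fluorescence gain as the protease cuts the substrate; inhibitor potency against ADAM10 proteolytic activity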
[5] = molecular target: T3, Disintegrin and metalloproteinase domain-containing protein 17 (Homo sapiens, UniProt P78536); assay: ADAM17 protease inhibitors, dose response, counter-screen for ADAM10 exosite inhibitor project, biochemical, quenched FRET substrate (AID 743253)
T3 sequence (P78536 whole entry, the tested form may be a part): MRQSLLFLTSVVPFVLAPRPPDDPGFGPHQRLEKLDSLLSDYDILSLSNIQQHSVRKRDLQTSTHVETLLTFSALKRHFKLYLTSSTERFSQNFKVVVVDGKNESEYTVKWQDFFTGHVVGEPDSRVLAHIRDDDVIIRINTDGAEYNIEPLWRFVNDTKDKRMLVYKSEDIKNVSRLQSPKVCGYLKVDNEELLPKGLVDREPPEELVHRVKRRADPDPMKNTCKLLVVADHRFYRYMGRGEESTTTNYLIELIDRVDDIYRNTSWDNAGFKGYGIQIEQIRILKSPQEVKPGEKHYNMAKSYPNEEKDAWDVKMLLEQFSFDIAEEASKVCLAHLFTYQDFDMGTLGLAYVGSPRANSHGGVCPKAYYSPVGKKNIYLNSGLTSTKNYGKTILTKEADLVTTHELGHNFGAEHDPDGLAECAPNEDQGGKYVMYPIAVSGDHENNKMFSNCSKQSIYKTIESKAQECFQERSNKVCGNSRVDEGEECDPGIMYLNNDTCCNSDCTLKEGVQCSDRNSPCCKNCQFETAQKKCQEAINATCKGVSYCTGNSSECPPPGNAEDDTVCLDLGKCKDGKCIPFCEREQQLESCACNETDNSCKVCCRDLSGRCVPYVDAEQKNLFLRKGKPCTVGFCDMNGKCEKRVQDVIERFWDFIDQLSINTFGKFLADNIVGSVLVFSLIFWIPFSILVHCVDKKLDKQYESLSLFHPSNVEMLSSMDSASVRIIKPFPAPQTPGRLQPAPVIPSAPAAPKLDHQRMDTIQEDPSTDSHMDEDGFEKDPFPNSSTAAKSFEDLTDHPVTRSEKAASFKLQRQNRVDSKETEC

[6] = molecular target: T3, Disintegrin and metalloproteinase domain-containing protein 17; assay: exosite inhibitors of ADAM17, dose response, biochemical (AID 743260)
[7] = molecular target: T4, Corticotropin-releasing factor receptor 2/Corticotropin-releasing factor-binding protein (Homo sapiens, UniProt P24387+Q13324); assay: Dose Response confirmation of uHTS hits for small molecule antagonists of the CRF-binding protein and CRF-R2 receptor complex.; assay type: functional; details: read-out: IC50_Mean
T4 sequence (Q13324 whole entry): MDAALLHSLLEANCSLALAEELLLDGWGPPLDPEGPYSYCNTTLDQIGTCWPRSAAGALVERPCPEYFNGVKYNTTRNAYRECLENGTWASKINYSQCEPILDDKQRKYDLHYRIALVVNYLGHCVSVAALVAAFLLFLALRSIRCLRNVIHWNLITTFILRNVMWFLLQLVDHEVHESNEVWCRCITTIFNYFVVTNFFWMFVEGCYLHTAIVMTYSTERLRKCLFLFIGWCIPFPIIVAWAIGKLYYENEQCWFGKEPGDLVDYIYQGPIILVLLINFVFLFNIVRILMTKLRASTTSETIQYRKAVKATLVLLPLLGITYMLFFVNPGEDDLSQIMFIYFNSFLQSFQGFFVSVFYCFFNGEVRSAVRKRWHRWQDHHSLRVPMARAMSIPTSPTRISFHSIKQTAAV
T4 sequence (P24387 whole entry): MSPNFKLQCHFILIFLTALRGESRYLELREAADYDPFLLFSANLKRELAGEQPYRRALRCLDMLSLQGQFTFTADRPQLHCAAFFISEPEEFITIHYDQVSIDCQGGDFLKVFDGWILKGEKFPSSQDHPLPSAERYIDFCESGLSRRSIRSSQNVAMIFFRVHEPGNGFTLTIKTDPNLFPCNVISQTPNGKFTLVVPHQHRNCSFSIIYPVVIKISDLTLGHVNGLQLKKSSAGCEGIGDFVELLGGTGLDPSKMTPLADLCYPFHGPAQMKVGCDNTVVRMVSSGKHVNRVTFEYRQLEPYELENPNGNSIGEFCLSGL

[8] = CRF-BP/CRF-R2 complex antagonists, dose response, cell-based, uHTS hits, 384-well (AID 651639); assay type: functional, Homo sapiens; details: read-out: IC50_Mean
[9] = molecular target: T4, Corticotropin-releasing factor receptor 2/Corticotropin-releasing factor-binding protein; assay: activators of CRF receptor 2 with binding protein – uHTS hits, confirmation (AID 602473); assay type: functional; details: read-out: EC50_Mean
[10] = tested on: Streptococcus sp. 'group A'; assay: growth inhibition of control SK(-) GAS strain, dose response, counter-screen for streptokinase expression inhibitor project, luminescence, kanamycin, BacTiterGlo, confirmation (AID 1900); assay type: functional, organism-based
[11] = inhibitors of SNCA 5'UTR-driven reporter translation, confirmation, H4 neuroglioma cells, luminescence (AID 1988); assay type: functional, cell-based
[12] = inhibitors of firefly luciferase expression or activity, dose response, H4 neuroglioma cells, luminescence (AID 1990); assay type: functional, cell-based
[13] = tested on: Streptococcus; assay: Group A Streptococcus viability loss, dose response, counter-screen for streptokinase expression inhibitor project, luminescence, BacTiterGlo (AID 1915); assay type: functional, organism-based;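 note: potency for reduction of bacterial viability or growth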
[14] = molecular target: T5, Streptokinase A (Streptococcus pyogenes serotype M1, UniProt P10520); assay: S. pyogenes streptokinase expression inhibitors, potency, dose response, plasminogen activation absorbance, OD405 (AID 1914); assay type: functional, Streptococcus pyogenes M1 GAS;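 note: secreted streptokinase activity via plasminogen activation per viability signal from cell pellet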
T5 sequence (P10520 whole entry): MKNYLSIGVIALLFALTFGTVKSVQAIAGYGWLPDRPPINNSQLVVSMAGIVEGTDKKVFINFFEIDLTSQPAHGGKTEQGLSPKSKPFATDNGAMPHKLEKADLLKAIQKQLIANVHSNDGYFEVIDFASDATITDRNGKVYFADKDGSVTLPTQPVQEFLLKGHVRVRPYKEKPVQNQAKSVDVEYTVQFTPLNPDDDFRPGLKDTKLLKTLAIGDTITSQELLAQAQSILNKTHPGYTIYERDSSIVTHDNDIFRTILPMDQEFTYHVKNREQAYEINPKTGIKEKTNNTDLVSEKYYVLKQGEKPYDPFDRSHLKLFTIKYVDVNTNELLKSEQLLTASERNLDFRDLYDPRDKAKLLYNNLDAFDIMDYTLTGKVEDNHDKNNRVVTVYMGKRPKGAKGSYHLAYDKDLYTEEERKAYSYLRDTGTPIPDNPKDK

[15] = Luminescence Cell-Based Dose Response HTS to Identify Inhibitors of 5'UTR Stem-Loop Driven Prion Protein mRNA Translation in H4 Neuroglioblastoma Cells. [Related pubchem assays: 1827 (Project Summary), 1813 (Primary HTS)]; assay type: functional
[16] = molecular target: T6, Caspase-6 (Homo sapiens, UniProt P55212); assay: human caspase-6 inhibitors, dose response, biochemical, VEID-R110 fluorescence, cherry-pick (AID 720632)
T6 sequence (P55212 whole entry): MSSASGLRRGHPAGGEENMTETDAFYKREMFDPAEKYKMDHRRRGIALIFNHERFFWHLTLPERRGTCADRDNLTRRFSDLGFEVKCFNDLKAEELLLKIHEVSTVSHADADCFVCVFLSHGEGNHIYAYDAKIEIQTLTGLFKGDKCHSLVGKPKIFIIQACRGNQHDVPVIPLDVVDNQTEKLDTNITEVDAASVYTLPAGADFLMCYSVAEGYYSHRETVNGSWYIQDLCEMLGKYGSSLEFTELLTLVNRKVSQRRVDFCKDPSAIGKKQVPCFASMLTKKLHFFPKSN

[17] = ADAM10 protease inhibitors, dose response, selectivity assay for ADAM17 exosite inhibitor project, biochemical, FRET peptide substrate, recombinant human ADAM10 (AID 743259);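 note: ADAM10 enzyme cleaving a FRET peptide substrate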
[18] = StAR promoter reporter inhibition counter-screen, dose response, counter-screen for LRH-1 inverse agonist project, cell-based, luminescence, luciferase reporter (AID 651969); assay type: functional
[19] = molecular target: Nuclear receptor subfamily 5 group A member 2 (Homo sapiens, UniProt O00482); assay type: functional, cell-based;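 note: HEK293T cells transfected with LRH-1 and a StAR promoter luciferase reporter; potency for inhibitors that lower LRH-1 driven reporter light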
Chain of Nuclear receptor subfamily 5 group A member 2 (O00482 whole entry): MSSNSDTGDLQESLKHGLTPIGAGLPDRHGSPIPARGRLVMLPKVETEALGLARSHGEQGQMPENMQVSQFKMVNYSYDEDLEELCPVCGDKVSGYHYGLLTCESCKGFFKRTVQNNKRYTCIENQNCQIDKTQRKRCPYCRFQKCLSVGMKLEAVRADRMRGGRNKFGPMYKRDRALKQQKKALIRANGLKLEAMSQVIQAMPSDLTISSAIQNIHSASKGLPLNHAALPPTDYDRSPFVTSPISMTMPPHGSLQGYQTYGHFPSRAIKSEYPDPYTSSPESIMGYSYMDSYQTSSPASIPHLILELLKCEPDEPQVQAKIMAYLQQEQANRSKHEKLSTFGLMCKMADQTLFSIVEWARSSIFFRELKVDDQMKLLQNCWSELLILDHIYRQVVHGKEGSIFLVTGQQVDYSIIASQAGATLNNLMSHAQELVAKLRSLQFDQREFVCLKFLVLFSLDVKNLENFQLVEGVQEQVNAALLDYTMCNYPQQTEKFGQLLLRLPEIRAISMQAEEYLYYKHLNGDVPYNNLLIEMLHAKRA

[20] = molecular target: Steroidogenic factor 1 (Homo sapiens, UniProt Q13285); assay: Counterscreen for inverse agonists of the liver receptor homolog-1 (LRH-1; NR5A2): Luminescence-based cell-based high throughput dose response assay to identify inverse agonists of the Steroidogenic Factor 1 Nuclear Receptor (SF1; NR5A1).; assay type: functional
Chain of Steroidogenic factor 1 (Q13285 whole entry): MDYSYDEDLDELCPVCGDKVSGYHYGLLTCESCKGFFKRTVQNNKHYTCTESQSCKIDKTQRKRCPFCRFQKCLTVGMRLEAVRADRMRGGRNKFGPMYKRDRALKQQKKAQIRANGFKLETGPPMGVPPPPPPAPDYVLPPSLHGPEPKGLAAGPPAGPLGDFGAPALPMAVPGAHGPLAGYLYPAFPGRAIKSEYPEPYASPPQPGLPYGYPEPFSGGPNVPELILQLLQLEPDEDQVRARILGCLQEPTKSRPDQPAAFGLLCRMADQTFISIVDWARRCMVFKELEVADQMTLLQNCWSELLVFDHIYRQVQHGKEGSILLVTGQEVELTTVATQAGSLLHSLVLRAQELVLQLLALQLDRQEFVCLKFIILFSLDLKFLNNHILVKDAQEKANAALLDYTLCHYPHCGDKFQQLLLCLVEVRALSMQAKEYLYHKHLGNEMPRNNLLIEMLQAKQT

[21] = cells; assay type: functional, cell-based; remark: listed apart in the source
[22] = cells; assay type: functional, cell-based; remark: listed apart in the source

SMILES: CC1CCc2c(sc(NC(=O)C3=COCCO3)c2C(N)=O)C1 (stereo not drawn)
- EC50 [1]: > 67.5 µM (inactive)

SMILES: Cc1cc(C(=O)CSc2nnc(N)s2)c(C)n1C1CC1
- IC50 [2]: > 67.6 µM (inactive)
- IC50 [3]: > 67.6 µM (inactive)

SMILES: CC(=O)c1cccc(NC(=O)C(OC(=O)c2ccccc2NS(=O)(=O)c2cccs2)c2ccccc2)c1 (stereo not drawn)
- IC50 [4]: > 69.5 µM (inactive)
- IC50 [5]: > 69.5 µM (inactive)
- IC50 [6]: > 69.5 µM (inactive)

SMILES: CCN(CC)C1Oc2cc3c(cc2C(c2cccc(OC)c2O)C1C)OCO3 (stereo not drawn)
- IC50 [7]: 2.99 µM (active)
- IC50 [8]: 5.28 µM (active)
- EC50 [9]: > 53 µM (inactive)

SMILES: Cn1cc(C(=O)c2ccc(Cl)cc2Cl)cc1C(=O)NN=C(N)COc1ccc(Cl)cc1Cl
- EC50 [10]: 0.927 µM (active)
- EC50 [11]: 9.69 µM (active)
- EC50 [12]: > 120 µM (not active)
- EC50 [13]: 43.9 µM (active)
- IC50 [4]: > 69.5 µM (inactive)
- IC50 [5]: > 69.5 µM (inactive)
- EC50 [14]: > 150 µM (not active)
- EC50 [15]: 24.3 µM (active)

SMILES: Cc1ccsc1C(=O)OCC(=O)c1cc(C)n(C)c1C
- IC50 [2]: > 0.278 µM (active)
- IC50 [3]: > 67.6 µM (inactive)

SMILES: NC(=O)c1c(NC(=O)C2CC=CCC2C(=O)O)sc2c1CCCCC2 (stereo not drawn)
- AC50 [16]: 5.79 µM (active)

SMILES: CCOc1ccc(Cl)cc1S(=O)(=O)n1nnc2ccccc21
- IC50 [7]: 3.56 µM (active)
- IC50 [8]: 2.16 µM (active)
- EC50 [9]: > 53 µM (inactive)

SMILES: CNC(=O)C1CC(=O)N=C(N/N=C(\C)c2cccs2)S1 (stereo not drawn)
- IC50 [17]: > 23.2 µM (inactive)
- IC50 [6]: > 69.5 µM (inactive)

SMILES: COc1ccc(C(=O)Nc2cc(=O)n(C)c(=O)n2C)cc1
- IC50 [7]: < 0.368 µM (active)
- IC50 [8]: > 20 µM (inactive)
- EC50 [9]: > 53 µM (inactive)

SMILES: CC1CCC2(CC1)NC(=O)N(CC(=O)Nc1ccc3c(c1)OCCCO3)C2=O (stereo not drawn)
- IC50 [18]: 35.9 µM (inactive)
- IC50 [19]: 6.2 µM (active)
- IC50 [20]: 1.02 µM (active)

SMILES: COc1ccccc1NC(=O)CN1CCN(CC(=O)Nc2ccc3c(c2)OCCO3)CC1
- IC50 [18]: 35.9 µM (inactive)
- IC50 [19]: 4.02 µM (active)
- IC50 [20]: 0.985 µM (active)

SMILES: c1ccc(Nc2nc(-c3cccnc3)cs2)nc1
- EC50 [1]: > 67.6 µM (inactive)

SMILES: c1csc(-c2nnc(-c3ccc(N4CCOCC4)cc3)o2)c1
- EC50 [1]: > 67.5 µM (inactive)

SMILES: CCOc1ccc(OCCC(=O)OCC(=O)Nc2ccc3c(c2)OCCO3)cc1
- IC50 [18]: 35.9 µM (inactive)
- IC50 [19]: 35.9 µM (inactive)
- IC50 [20]: 12.7 µM (inactive)

SMILES: O=C(Cc1nnc(O)nc1O)N/N=C/c1ccccc1O
- EC50 [21]: > 29.9 µM (inactive)
- IC50 [22]: > 29.9 µM (inactive)

SMILES: Cc1ccc(NC(=O)c2cc3c(s2)CCCC3)cc1S(=O)(=O)Nc1ccccc1Cl
- IC50 [4]: > 69.5 µM (inactive)
- IC50 [5]: > 69.5 µM (inactive)
